Molecular target: T1, hDGAT1 (Homo sapiens, UniProt O75907)
T1 construct: host or cells: Sf9 insect cells (baculovirus); microsomal preparation
T1 sequence (O75907 1-488): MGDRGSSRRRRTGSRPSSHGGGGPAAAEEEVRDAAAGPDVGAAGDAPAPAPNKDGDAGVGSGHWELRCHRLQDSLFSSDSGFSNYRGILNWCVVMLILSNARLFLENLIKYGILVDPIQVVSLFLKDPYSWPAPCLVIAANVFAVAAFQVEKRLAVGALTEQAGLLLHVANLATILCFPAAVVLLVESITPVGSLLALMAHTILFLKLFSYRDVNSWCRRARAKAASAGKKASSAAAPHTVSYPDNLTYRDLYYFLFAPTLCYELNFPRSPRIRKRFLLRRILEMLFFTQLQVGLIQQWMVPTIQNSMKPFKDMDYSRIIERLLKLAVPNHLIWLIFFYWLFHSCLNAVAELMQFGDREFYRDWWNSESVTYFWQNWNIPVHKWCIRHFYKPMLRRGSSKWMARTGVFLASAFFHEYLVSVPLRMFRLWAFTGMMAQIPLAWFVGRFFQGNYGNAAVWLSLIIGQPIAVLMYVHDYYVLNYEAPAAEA
Test: In-vitro DGAT1 assay (hDGAT1 microsomes from Sf9 cells, 14C oleoyl CoA, triglyceride formation)
Format: biochemical
Settings: At 1 μM
Method in brief: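 Compounds tested in duplicate at 10, 5 and 1 μM for 10 min at 37 °C. Reaction: Sf9-expressed hDGAT1 microsomes (2.5–10 μg), [14C]oleoyl-CoA plus 409.5–1638 μM dioleoylglycerol, pH 7.4 Tris-HCl with fatty-acid-free BSA. Radiolabelled triglyceride extracted into heptane and scintillation-counted.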

| inhibition at 1 µM [%] | Compound |
| --- | --- |
| 0 to 50 | CC(C)C(NC(=O)c1cc(-c2ccc(NC(=O)[C@H](O)c3ccccc3)cc2)no1)C(=O)O (stereo partly drawn) [Example 341, 2-(3-(4-((R)-2-hydroxy-2-phenylacetamido)phenyl)isoxazole-5-carboxamido)-3-methylbutanoic acid] |
| 50 to 75 | COC(=O)[C@@H](NC(=O)c1cc(-c2ccc(NC(=O)Nc3ccc(F)c(F)c3)cc2)no1)C(C)C [Example 129, (S)-methyl 2-(3-(4-(3-(3,4-difluorophenyl)ureido)phenyl)isoxazole-5-carboxamido)-3-methylbutanoate] |
| 0 to 50 | COC(=O)[C@H](NC(=O)c1cc(-c2ccc(NS(=O)(=O)c3ccccc3F)cc2)no1)C(C)C [Example 315, (R)-methyl 2-(3-(4-(2-fluorophenylsulfonamido)phenyl)isoxazole-5-carboxamido)-3-methylbutanoate] |
| 75 to 100 | CC(C)C(NC(=O)c1cc(-c2ccc(NC(=O)Nc3ccccc3-c3ccccc3)cc2)no1)C(=O)O (stereo not shown) [Example 291, 2-(3-(4-(3-Biphenyl-2-ylureido)phenyl)isoxazole-5-carboxamido)-3-methylbutanoic acid] |
| 75 to 100 | CC(C)[C@H](NC(=O)c1cc(-c2ccc(NC(=O)Nc3ccc4c(c3)OCO4)cc2)no1)C(=O)O [Example 177, (S)-2-(3-(4-(3-benzo[d][1,3]dioxol-5-ylureido)phenyl)isoxazole-5-carboxamido)-3-methylbutanoic acid] |
| 75 to 100 | Cc1ccc(NC(=O)Nc2ccc(-c3cc(C(=O)NC(C(=O)O)C(C)C)on3)cc2)cc1Cl (stereo not shown) [Example 248, 2-(3-(4-(3-(3-Chloro-4-methylphenyl)ureido)phenyl)isoxazole-5-carboxamido)-3-methylbutanoic acid] |
| 50 to 75 | COc1ccc(OC)c(NC(=O)Nc2ccc(-c3cc(C(=O)N[C@H](C(=O)O)C(C)C)on3)cc2)c1 [Example 166, (S)-2-(3-(4-(3-(2,5-Dimethoxyphenyl)ureido)phenyl)isoxazole-5-carboxamido)-3-methylbutanoic acid] |
| 75 to 100 | Cc1ccc(Cl)cc1NC(=O)Nc1ccc(-c2cc(C(=O)N[C@H](C(=O)O)C(C)C)on2)cc1 [Example 195, (S)-2-(3-(4-(3-(5-chloro-2-methylphenyl)ureido)phenyl)isoxazole-5-carboxamido)-3-methylbutanoic acid] |

Same assay, conditions: At 5 μM

| inhibition at 5 µM [%] | Compound |
| --- | --- |
| 0 to 50 | COC(=O)[C@@H](NC(=O)c1nc(-c2ccc(NC(=O)Nc3ccc(OC)cc3)cc2)no1)C(C)C [Example 344, (S)-Methyl 2-(3-(4-(3-(4-methoxyphenyl)ureido)phenyl)-1,2,4-oxadiazole-5-carboxamido)-3-methylbutanoate] |

Same assay, conditions: At 10 μM

| inhibition at 10 µM [%] | Compound |
| --- | --- |
| 0 to 50 | COC(=O)C(C)NC(=O)c1cc(-c2ccc(NC(=O)Nc3c(F)cccc3F)c(C)c2)no1 (stereo not shown) [Example 101, Methyl 2-(3-(4-(3-(2,6-difluorophenyl)ureido)-3-methylphenyl)isoxazole-5-carboxamido)propanoate] |
| 75 to 100 | CC(C)C[C@H](NC(=O)c1cc(-c2ccc(NC(=O)Nc3ccc(F)cc3)cc2)no1)C(=O)O [Example 87, (S)-2-[(3-{4-[3-(4-Fluoro-phenyl)-ureido]-phenyl}-isoxazole-5-carbonyl)-amino]-4-methyl-pentanoic acid] |
| 0 to 50 | CC(C)C[C@H](NC(=NO)c1cc(-c2ccc(Nc3nc4ccc(F)cc4s3)cc2)no1)C(=O)O [Example 51, (S)-2-({3-[4-(6-Fluoro-benzothiazol-2-ylamino)-phenyl]-N-hydroxy-isoxazole-5-carboximidoyl}-amino)-4-methyl-pentanoic acid] |
| 50 to 75 | CC(C)[C@H](NC(=NO)c1cc(-c2ccc(Nc3nc4ccc(F)cc4s3)cc2)no1)C(=O)O [Example 8, (S)-2-({3-[4-(6-Fluoro-benzothiazol-2-ylamino)-phenyl]-N-hydroxy-isoxazole-5-carboximidoyl}-amino)-3-methyl-butyric acid] |

Source: patent US8835428B2, “Diacylglycerol acyltransferase inhibitors” (Piramal Enterprises Limited, priority 2008, dated 2014)
